Test results as given in patent publication US7638509B2, “Diene compounds and formulations” (priority 2003, dated 2009).
Where a chain is given by its changes, count along the chain named.

Assays:
AR [1] = target: T1, AR (Homo sapiens, UniProt P10275); experiment: Steroid hormone specificity, androgenic activity in PC-3 cells; assay type: cell-based; settings: PC-3, ADEK at 0.01 mM, 0.1 mM and 1.0 mM, 24 h
T1 construct: expressed in transfected cells; host or cells: PC-3
T1 sequence (P10275 1-920): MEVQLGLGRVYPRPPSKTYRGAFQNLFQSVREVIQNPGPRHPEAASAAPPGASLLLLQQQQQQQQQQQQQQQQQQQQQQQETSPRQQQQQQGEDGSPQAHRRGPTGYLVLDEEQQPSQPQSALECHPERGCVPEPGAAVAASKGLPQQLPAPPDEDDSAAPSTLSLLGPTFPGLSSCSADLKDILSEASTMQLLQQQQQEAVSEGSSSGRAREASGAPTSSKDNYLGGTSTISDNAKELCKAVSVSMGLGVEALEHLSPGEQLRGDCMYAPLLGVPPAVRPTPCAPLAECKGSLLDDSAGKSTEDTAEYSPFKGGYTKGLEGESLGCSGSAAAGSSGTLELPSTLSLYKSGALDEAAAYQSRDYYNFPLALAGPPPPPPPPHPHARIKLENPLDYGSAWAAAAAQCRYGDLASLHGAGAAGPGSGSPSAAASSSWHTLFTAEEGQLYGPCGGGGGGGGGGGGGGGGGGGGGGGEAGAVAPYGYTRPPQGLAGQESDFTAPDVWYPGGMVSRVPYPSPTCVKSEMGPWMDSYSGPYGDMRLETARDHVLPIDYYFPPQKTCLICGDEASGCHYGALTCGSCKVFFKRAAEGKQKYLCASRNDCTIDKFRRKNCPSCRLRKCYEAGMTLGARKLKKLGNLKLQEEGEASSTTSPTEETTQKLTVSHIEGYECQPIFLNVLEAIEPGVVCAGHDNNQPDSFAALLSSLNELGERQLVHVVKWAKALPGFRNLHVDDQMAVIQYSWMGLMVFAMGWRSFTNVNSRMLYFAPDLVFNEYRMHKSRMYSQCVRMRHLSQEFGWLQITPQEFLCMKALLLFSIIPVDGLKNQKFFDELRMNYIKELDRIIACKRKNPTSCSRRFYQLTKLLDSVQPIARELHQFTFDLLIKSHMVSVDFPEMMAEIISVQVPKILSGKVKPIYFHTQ
Description: Cell Culture, Transfection, and Reporter Gene Assay. The human prostate cancer cell lines, LNCaP, PC-3, and DU145, and non-prostate cancer cell line COS-1 were maintained in RPMI or Dulbecco's modified Eagle's medium (DMEM) (Life Technologies) supplemented with 10% fetal bovine serum (FBS). Transfections and luciferase (Luc) assays were performed as previously described (Miyamoto, H., Yeh, S., Wilding, G. & Chang, C. (1998) Proc. Natl. Acad. Sci. USA 95, 7379-7384; Miyamoto, H., Rahman, M., Takatera, H., Kang, H.-Y., Yeh, S., Chang, H.-C., Nishimura, K., Fujimoto, N. & Chang, C. (2002) J. Biol. Chem. 277, 4609-4617). Briefly, cells seeded to reach a density of 50-60% confluence in 12 well tissue culture plates were transfected with 1.5 μg of DNA according to “SuperFect transfection” instructions (Qiagen). […] The Luc activity was determined using a Dual-Luciferase Reporter Assay System (Promega) and luminometer.
Steroid Hormone Specificity of ADEK. To characterize the steroid hormone activity of ADEK, PC-3 cells were transfected with steroid receptor/reporter (progesterone receptor (PR)/MMTV-Luc, glucocorticoid receptor (GR)/MMTV-Luc, or estrogen receptor (ER)/ERE-Luc) and analyzed for expression of the Luc reporter gene. […] The Luc activity was measured relative to that of ETOH treatment (set as 1-fold). […]

AR [2] = target: T2, AR (Homo sapiens, UniProt P10275, T878A); experiment: Competitive [3H]-R1881 ligand binding assay, LNCaP whole cell extracts; settings: 1 nM [3H]-R1881, unlabeled ligand 1-10,000 nM, relative to DHT
T2 construct: LNCaP without transfection; endogenous in cells; host or cells: LNCaP
T2 sequence (P10275 1-920 T878A): T1 sequence (P10275 1-920) with T878A
Description: Ligand Binding Assay. Whole cell extracts from COS-1 with transient transfection of pSG5-AR, or LNCaP without transfection, were incubated for 2 h at 37° C. with 1 nM [^3H]-synthetic androgen methyltrienolone (R1881) in the presence and absence of increasing concentrations (1-10,000 nM) of unlabeled ligands. Then, hydroxyapatite (Bio-Rad) was added and stirred for 15 min at 4° C. After centrifugation and washing, radioactivity was determined by scintillation counting.
Clinically available antiandrogens have an affinity for the AR, allowing a competition with androgens for binding. To determine whether ADEK has this common feature of AR antagonists, the competitive androgen binding assay was performed.

CC(=O)O[C@H]1C=C[C@@]2(C)C(=CC[C@@H]3[C@@H]2CC[C@@]2(C)[C@H]3CCC23OCCO3)C1 [ADEK, 3β-acetoxy-17,17-ethylenedioxyandrosta-1,5-diene]
androgenic activity (in words) (AR [1]): no significant
RBA in LNCaP (AR [2]): 11.1
